Experimental data published in patent US12715846B2, “Crystal form of quinolinone compound and use thereof” (SUNSHINE LAKE PHARMA CO., LTD., priority 2019, dated 2026).
One block for each compound: values may come before it.

How the values were obtained:
Solubility experiment = assay type: physicochemical; conditions: comparison in words, values not given
Experimental: The solubility of the present invention was determined using an Agilent 1200 High Performance Liquid Chromatograph DAD/VWD detector with an Agilent XDB-C18 model (4.6×50 mm, 5 μm). The detection wavelength was 266 nm, the flow rate was 1.0 mL/min, and the column temperature was 35° C. The mobile phase A was acetonitrile−0.01 M ammonium acetate=10:90 (V:V), and the analysis method was acetonitrile−mobile phase A=70:30 (V:V). The running time was 10 minutes.

[1] = Stability: high-temperature experiment; assay type: physicochemical; conditions: for Purity: HPLC
Experimental: (1) High-temperature experiment: appropriate amount of the test sample was added into a flat weighing bottle, divided into ≤5 mm thick thin layer. The bottle was placed at 60° C.±2° C. for 30 days. Samples were taken on the 6th, 10th, and 30th day, and tested according to the key stability inspection items: the color of the samples were observed, the purities of the samples were determined by HPLC.

[2] = Hygroscopicity experiment (dynamic moisture adsorption, DVS); assay type: physicochemical
Experimental: The hygroscopicity of the present invention was measured by a DVS INT-Std dynamic moisture and gas adsorption analyzer from Surface Measurement Systems, UK. The humidity test range was 0%-95%, the airflow rate was 200 mL/min, and the temperature was 25° C. One test point was taken for every 5% increase in humidity.
An appropriate amount of the test sample was taken, the hygroscopicity was tested by dynamic moisture adsorption device.

[3] = Crystal form stability on standing under normal temperature and pressure; assay type: physicochemical; conditions: normal temperature and pressure conditions
[4] = Stability: illumination experiment; assay type: physicochemical; conditions: for Appearance / Purity: Illumination; for Purity: HPLC
Experimental: (3) Illumination experiment: a batch of the test sample was added into a flat weighing bottle, divided into ≤5mm thick thin layer. The bottle was opened and placed in a light box (with UV lamp) under the condition of illuminance of 4500±500 lx and ultraviolet light ≥0.7w/m^2 for 30 days. Samples were taken on the 6th, 13th, and 30th day, the purities of the samples were determined by HPLC.

[5] = Stability: accelerated experiment; assay type: physicochemical; conditions: for Appearance / Purity / Moisture content: 40 ± 2° C./75% ± 5% RH; for Purity: HPLC; for Moisture content: by TGA
Experimental: (4) Accelerated experiment: appropriate amount of the test sample was packed with a single-layer PE and aluminum foil, the sample was placed at 40±2° C./75%±5% RH for 6 months. Samples were taken on the 1st, 2nd, 3rd and 6th month. The color of the samples were observed, the purities of the samples were determined by HPLC, and the moisture content was determined by TGA.

[6] = Pharmacokinetic experiment of the crystal form in Beagle dogs; assay type: in vivo
Experimental: The crystal form of the compound of formula (I) of the present invention is filled into capsules for oral administration.
8-12 kg male Beagle dogs were taken, and 3 as a group. Capsules containing the test sample were orally administered at a dose of 10 mg/kg and the bloods were collected at time points of 0.25, 0.5, 1.0, 2.0, 4.0, 6.0, 8.0 and 24 h. Standard curve was plotted based on concentrations of the samples in a suitable range, the concentration of the test sample in the plasma sample was measured and quantified by AB SCIEX API4000 LC-MS/MS at MRM mode. Pharmacokinetic parameters were calculated according to drug concentration-time curve using a noncompartmental method by WinNonLin 6.3 software.

[7] = Stability: high-humidity experiment; assay type: physicochemical; conditions: for Appearance / Purity: High humidity (RH92.5%); for Purity: HPLC
Experimental: (2) High-humidity experiment: a batch of the test sample was added into a flat weighing bottle, divided into ≤5 mm thick thin layer. The bottle was placed at 25° C. and RH for 90%±5% for 30 days. Samples were taken on the 6th, 10th, and 30th day, and tested according to the key stability inspection items: the color of the samples were observed, the purities of the samples were determined by HPLC.

[8] = 0 day (start, common to all conditions of Table 2)
[9] = High temperature (60° C.), 6th day
[10] = High temperature (60° C.), 10th day
[11] = High temperature (60° C.), 30th day
[12] = dog, plasma, po, male Beagle dogs, capsules orally, 10 mg/kg

solubility compared with crystal form II (Solubility experiment): better solubility | Appearance [1, 8]: off-white | Purity [1, 8]: 99.76% | Appearance [1, 9]: off-white | Purity [1, 9]: 99.77% | Appearance [1, 10]: off-white | Purity [1, 10]: 99.78% | Appearance [1, 11]: off-white | Purity [1, 11]: 99.77% | change of appearance and purity ([1]; high temperature (60° C.), 30 days): no obvious changes | hygroscopicity feature ([2]; Chinese Pharmacopoeia 2015 General Principle 9103 classes (Table 5)): lightly hygroscopic | Weight gain at 60% relative humidity ([2]; DVS, 25° C., 60% relative humidity): 0.27% | Weight gain at 80% relative humidity ([2]; DVS, 25° C., 80% relative humidity): 0.38% | Weight gain at 95% relative humidity ([2]; DVS, 25° C., 95% relative humidity): 0.57% | crystal transformation on standing ([3]; listed as crystal form I): does not undergo crystal transformation | Appearance ([4]; 6th day): off-white | Purity ([4]; 6th day): 99.77% | Appearance ([4]; 13th day): off-white | Purity ([4]; 13th day): 99.77% | Appearance ([4]; 30th day): off-white | Purity ([4]; 30th day): 99.72% | change of appearance and purity ([4]; lighting conditions, 30 days): no obvious changes | Appearance ([5]; 0 month): off-white | Purity ([5]; 0 month): 99.78% | Moisture content ([5]; 0 month): 0.04% | Appearance ([5]; 1st month): off-white | Purity ([5]; 1st month): 99.77% | Moisture content ([5]; 1st month): 0.06% | Appearance ([5]; 2nd month): off-white | Purity ([5]; 2nd month): 99.78% | Moisture content ([5]; 2nd month): 0.07% | Appearance ([5]; 3rd month): off-white | Purity ([5]; 3rd month): 99.78% | Moisture content ([5]; 3rd month): 0.08% | Appearance ([5]; 6th month): off-white | Purity ([5]; 6th month): 99.78% | Moisture content ([5]; 6th month): 0.12% | change of appearance, purity and moisture content ([5]; accelerated experimental conditions (40±2° C./75%±5% RH, 6 months)): no obvious changes | exposure in beagle dogs ([6]; beagle dogs, oral capsules 10 mg/kg, conclusion from Table 1): larger exposure | AUC(0-t) [6, 12]: 9300 ng·h/mL | Cmax [6, 12]: 2810 ng/mL | Tmax [6, 12]: 1.17 h | Appearance ([7]; 6th day): off-white | Purity ([7]; 6th day): 99.78% | Appearance ([7]; 10th day): off-white | Purity ([7]; 10th day): 99.77% | Appearance ([7]; 30th day): off-white | Purity ([7]; 30th day): 99.76% | change of appearance and purity ([7]; high humidity (25° C., RH 90%±5%), 30 days): no obvious changes
Structure (SMILES): Cn1c(=O)c(C(=O)NCC(=O)O)c(O)c2ccc(Oc3ccccc3)cc21 [Example 1, 2-(4-hydroxy-1-methyl-2-oxo-7-phenoxy-1,2-dihydroquinoline-3-carboxamido)acetic acid]

crystal transformation on standing [3]: easy to undergo crystal transformation
Structure (SMILES): Cn1c(=O)c(C(=O)NCC(=O)O)c(O)c2ccc(Oc3ccccc3)cc21 [crystal form II, 2-(4-hydroxy-1-methyl-2-oxo-7-phenoxy-1,2-dihydroquinoline-3-carboxamido)acetic acid]
